Experiments:
[1] = system: SPOP-mediated ubiquitination in T-REx-293 cells; experiment: SPOP-mediated ubiquitination of Pdx1 variants (Ni-NTA pulldown, immunoblot); assay type: cell-based; conditions: SPOP–myc and GFP–Pdx1 coexpressed 24 h, then 20 μM MG132 or DMSO for 4 h, immunoblot (Fig. 6C)
Experimental: We next sought to determine whether SPOP-driven ubiquitination of Pdx1 could occur outside of previously implicated droplets. Given the SPOP relocalization phenotype that we observe in cells that express SPOP and Pdx1, we hypothesized that the ubiquitination activity was occurring in the diffuse nucleoplasm and that optimal activity requires both SB sites. To test this hypothesis, we performed in cell ubiquitination assays with GFP–Pdx1 variants. SPOP–myc and GFP–Pdx1 were coexpressed for 24 h in T-REx-293 cells, followed by a 4-h treatment with 20 μM MG132 or dimethyl sulfoxide. Proteins modified with His-ubiquitin were enriched by pulldown on nickel-nitrilotriacetic acid (Ni-NTA) resin.
A plasmid encoding full-length human Pdx1 (amino acids 1-283) in pcDNA3.1 with a C-terminal GFP tag was purchased from GenScript. Full-length mouse SPOP (identical to the human sequence) with a V5 epitope tag in pcDNA3 was generated previously ([21]). The coding sequence for full-length mouse SPOP was inserted into pcDNA4/TO/myc (Invitrogen) for the T-REx system. pcDNA3-myc-CUL3 (cat no. 19893) and pcDNA–HA2–ROC1 (Rbx1) (cat no. 19897) were obtained from Addgene. pcDNA3 containing His-ubiquitin was a gift from Wenyi Wei.
Ubiquitination and Western blots
(§1) T-REx-293 cells (Invitrogen) were seeded at a density of 0.8 × 10^6 per well in 6-well plates (tissue culture–treated plates (cat. no 3516, Corning)). After 24 h, cells were transfected with plasmids encoding Pdx1–GFP, SPOP–myc, His–ubiquitin, HA–Rbx1, and myc–CUL3 (as indicated) using the Qiagen Effectene transfection reagent. 24 h after transfection, the cells were treated with either dimethyl sulfoxide or 20 μM MG132 for 4 h before being harvested. Cells were lysed in buffer A (6 M guanidine HCl, 100 mM sodium phosphate, pH 8.0, and 10 mM imidazole). The lysates were sonicated, cleared, and incubated with Ni-NTA Agarose (Qiagen) for 3 h at RT, followed by 16 h at 4 °C. The beads were washed twice with buffer A and twice with a buffer composed of 1:3 buffer A:buffer T1 (buffer T1: 25 mM Tris HCl, pH 8.0, and 20 mM imidazole). The beads were finally transferred to buffer T1 and then boiled in the SDS-PAGE loading buffer containing 300 mM imidazole. Pdx1 stability assays were performed as described above, except that the cells were not treated with MG132. Cells expressing Pdx1–GFP or a variant were harvested 28 h after transfection, resuspended in 2x SDS-loading dye, and boiled for 5 min before SDS-PAGE analysis.
(§2) All proteins were resolved by SDS-PAGE. Separated proteins were analyzed by immunoblotting using either the ECL or the ECL Select Western blotting detection reagents (Amersham). The antibodies used were mouse anti-Pdx1 used at 1:500 for pulldown or 1:2000 for inputs (clone 26771, MAB2419, R&D Systems), mouse anti-myc (1:250, clone 9E10, Santa Cruz Biotechnology), and rabbit anti-GAPDH (1:8000, clone EPR1689, Abcam). horseradish peroxidase-conjugated secondary antibodies were sourced from Jackson ImmunoResearch Laboratories and used at 1:20,000 dilution (goat anti-rabbit IgG, 111-035-003 and goat anti-mouse, 115-035-003).

[2] = In vitro phase separation of Pdx1; assay type: physicochemical
[3] = system: SPOP-dependent turnover in T-REx-293 cells; experiment: SPOP-dependent Pdx1 stability (Western blot); assay type: cell-based; conditions: no MG132, harvested 28 h after transfection, Western blot (Fig. S3D)
Experimental: In a similar experiment, the cells were not treated with a proteasome inhibitor to observe the SPOP-dependent stability of each Pdx1 variant.
as §1, §2

SPOP28–359 = biological target: T1, SPOP28–359 (Homo sapiens, UniProt O43791); experiment: Competition fluorescence anisotropy, displacement of f-Puc from oligomeric SPOP28–359; assay type: binding; conditions: competition FA; Fig. 5B and Table S4
T1 construct: A plasmid encoding His–SUMO–SPOP human residues 28 to 359; His-SUMO (N, cleaved yes); made in house; host or cells: E. coli Rosetta BL-21(DE3)
T1 sequence (O43791 28-359): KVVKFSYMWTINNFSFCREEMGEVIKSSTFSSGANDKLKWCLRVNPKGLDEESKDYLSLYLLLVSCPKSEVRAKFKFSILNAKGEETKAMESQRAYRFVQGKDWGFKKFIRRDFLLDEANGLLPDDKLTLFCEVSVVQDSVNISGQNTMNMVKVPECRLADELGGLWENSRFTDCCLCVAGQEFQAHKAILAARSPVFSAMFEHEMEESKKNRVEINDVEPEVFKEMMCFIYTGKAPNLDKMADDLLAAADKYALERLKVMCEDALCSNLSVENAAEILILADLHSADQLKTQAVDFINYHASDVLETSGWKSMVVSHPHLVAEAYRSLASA
Description: An Escherichia coli codon-optimized DNA sequence encoding amino acids 205 to 283 of the human Pdx1 sequence (Pdx1-C) in the multiple cloning site of pET49b(+) was purchased from GeneArt (Thermo Fisher). The pET49b(+) backbone encodes for N-terminal glutathione S-transferase and 6X His tags, followed by a 3C protease recognition motif. In all experiments described herein, a mutant containing an exogenous tryptophan at the N terminus of the human Pdx1-C sequence was used for the purposes of quantitation. Mutations in Pdx1-C were generated by Q5 site-directed mutagenesis (New England Biolabs) with primers designed on NEBbasechanger.com according to the manufacturer protocol. […]
All FA experiments were conducted in 50 mM sodium phosphate, pH 6.5, 50 mM sodium chloride, 5 mM DTT, 1% BSA, and 0.01% Triton X-100. In all experiments, the source of fluorescence signal was f-Puc purchased from GenScript, at a final concentration of 40 nM. […] The fluorescence polarization of each well was measured (from which FA was calculated) using either a TECAN Infinite M1000 Pro or BioTek Synergy 4 fluorometer. […] FA data points were fit to a complete competitive binding model ([23]) to determine dissociation constants using in-house Python scripts (see Quantification and statistical analysis). […]

- enhancement in binding affinity to oligomeric SPOP28–359 compared with SPOP–MATH (SPOP28–359): ~10 fold
Substance: Pdx1: full-length human Pdx1 (amino acids 1-283) with a C-terminal GFP tag
- ubiquitination of Pdx1 variant ([1]; listed as GFP–Pdx1–WT): is ubiquitinated in cells
- ubiquitination of Pdx1 variant ([1]; listed as Pdx1–WT): robust polyubiquitination
- in vitro phase separation [2]: do not observe in vitro phase separation
- SPOP-dependent Pdx1 stability ([3]; listed as Pdx1-GFP-WT): almost entirely degraded
- SPOP-dependent Pdx1 stability ([3]; listed as Pdx1–WT): readily degraded

Source: paper PMC8138767, “Intrinsically disordered substrates dictate SPOP subnuclear localization and ubiquitination activity” (The Journal of Biological Chemistry, 2021)
